“Also recorded” adds a separate entry of the source. Read-outs that look alike come from different tables or passages of the source.

Data on 5 compounds can be found in US20140011769A1, “Methods of Treating Retroviral Infections and Related Dosage Regimes” (Chimerix, Inc., priority 2012, published 2014).

One series relates to HTLV-I. As to the kind of experiment: Co-culture assay for HTLV-I, virus replication by p19 Gag ELISA. The following applies: for concentration inhibiting HTLV-I replication as measured by p19 ELISA: 2 weeks; for EC50: read-out: HTLV-I EC50; for suppression of virus replication greater than 50% (p19 ELISA): 2 and 4 weeks co-culture; for concentration inhibiting HTLV-I virus replication from infected PBMCs: 3 weeks post-infection; for antiviral activity: 2 weeks post infection, up to 25 μM. It is filed as cell-based. As to the method: PBMC Preparation: Fresh human peripheral blood mononuclear cells (PBMCs), obtained from Biological Specialty Corporation, Bristol, Pa., were confirmed as seronegative for HIV and HBV. Depending on the volume of the donor blood received, the leukophoresed blood cells were washed several times with PBS. After washing, the leukophoresed blood was diluted 1:1 with Dulbecco's phosphate buffered saline (PBS) and layered over 15 mL of Ficoll-Hypaque density gradient in a 50 mL conical centrifuge tube. These tubes were then centrifuged for 30 min at 600 g. Banded PBMCs were gently aspirated from the resulting interface and subsequently washed three times with PBS by low speed centrifugation. After the final wash, cells were enumerated by trypan blue dye exclusion and re-suspended at 1×10^6 cells/mL in RPMI 1640 with 15% Fetal Bovine Serum (FBS), 2 mmol/L L-glutamine, 2 μg/mL phytohemagglutinin (PHA-P), 100 Units/mL penicillin and 100 μg/mL streptomycin and allowed to incubate for 48-72 hr at 37° C.
After incubation, PBMCs were centrifuged and resuspended in PBMC medium (RPMI 1640 with 15% FBS, 2 mmol/L L-glutamine, 100 U/mL penicillin, 100 μg/mL streptomycin and 20 U/mL recombinant human IL-2). The cultures were then maintained for the remainder of the experiment by exchange of half the culture volume with fresh IL-2 containing tissue culture medium every 3 days. Assays were initiated with PBMCs that had been induced to proliferate for 72 hr. Stimulated PBMCs from two donors were pooled together to minimize the variability between individual donors and 8×10^6 cells were resuspended in 9 mL of fresh tissue culture medium per T25 flask.
HDP-TFV was evaluated at concentrations of 0.04, 0.2, 1 and 10 μM. AZT and tenofovir were evaluated at concentrations of 0.1, 1, 5 and 25 μM. HDP-TFV, AZT, or tenofovir were added to the PBMCs 10 hours prior to infection.
MT-2 Preparation: MT-2 cells were obtained from the NIH AIDS Research and Reference Reagent Program and passaged in T-75 flasks in RPMI 1640 medium, supplemented with 10% heat inactivated fetal bovine serum, 2 mmol/L L-glutamine, 100 U/ml penicillin and 100 μg/ml streptomycin. Total cell and viability quantification were performed using hemocytometer and trypan blue dye exclusion. The cells were incubated in 10 mL of 200 μg/mL mitomycin C for 1 hour at 37° C./5% CO2, washed 3 times in Dulbecco's phosphate buffered saline (DPBS), and resuspended in PBMC medium at 1.6×10^6 cells per mL. One mL of treated MT-2 cells was added to each T25 flask, except for the PBMC only control.
(§1) Co-Culture for HTLV-I Replication: Cell cultures were incubated at 37° C./5% CO2 for four weeks. Cell viability and density was monitored by trypan blue dye exclusion test. Cell density was readjusted to 8×10^5 cells per mL on days 3, 7, 10, 14, 21 and 28. Compound was added with the half-volume fresh medium exchange on days 3, 7, and 10. Supernatant was collected on days 14, 21 and 28 for measurement of HTLV-I virus replication by p19 Gag ELISA. Cell samples were also collected on days 14 and 28 for genomic DNA extraction and PCR analysis of HTLV-I proviral DNA. Untreated PBMCs co-cultured with MT-2 cells, PBMCs alone, and mitomycin C-treated MT-2 cells alone were cultured in parallel as controls.
HTLV-I p19 Gag ELISA: ELISA was performed to quantify p19 in cell-free supernatants according to the manufacturer's instructions (ZeptoMetrix, Buffalo, N.Y.). Briefly, 50 μL of the kit p19 standard was added to 950 μL assay diluent in microtiter tubes and serially diluted 1:2. After washing the microtiter plate with 1× plate wash buffer, 200 μL of the diluted standards were added in duplicate to the coated wells. In duplicate, 200 μL of media was added as negative controls. Cell culture supernatants were diluted 1:9 with media and mixed with 50 μL of lysis buffer in duplicate. Two hundred microliters of diluted sample was added to the coated wells and incubated at 37° C. for 2 hours. […]
A general note: In an ELISA, binding on a coated surface is turned into a signal by an enzyme label.

Series [1] in a line: Cell viability of infected PBMCs by trypan blue dye exclusion. The conditions noted are these: human, infected PBMCs, read-out: HTLV-I TC50; for CC50 at 2 weeks: 2 wks post infection; for CC50 at 3 weeks: 3 wks post infection; for CC50 at 4 weeks: 4 wks post infection. It is filed as cell-based, human. As to the method:
as §1
(§2) Anti-HTLV-I Evaluations: HDP-TFV K^+ salt and tenofovir were evaluated for HTLV-I inhibition in human PBMCs co-cultured with mitomycin C treated MT-2 cells at four concentrations of each compound. AZT was evaluated in parallel as a control compound. […] Cell viability was monitored by trypan blue dye exclusion. AZT and tenofovir were not toxic to the infected PBMCs at concentrations up to 25 μM at 2, 3, or 4 weeks post infection.
(§3) Anti-HTLV-I Evaluations: HDP-CDV and cidofovir were evaluated for HTLV-I inhibition in human PBMCs co-cultured with mitomycin C treated MT-2 cells at four concentrations of each compound. AZT was evaluated in parallel as a control compound. […] Cell viability was monitored by trypan blue dye exclusion. AZT was not toxic to the infected PBMCs at concentrations up to 25 μM at 2, 3, or 4 weeks post infection.

Another series deals with infected PBMCs. The series is described as above. In kind it is cell-based, human. The following applies: for toxicity as fresh compound was added to the cultures up to day 10: infected PBMC cultures; for CC50: infected PBMCs, read-out: HTLV-I TC50. As to the method:
as §1, §2, §3

Where [2] appears, read: Primate T-lymphotropic virus 1, MT2, 336 h, 2 wks post infection, human PBMCs co-cultured with mitomycin C treated MT-2 cells.
The mark [3] stands for this setting: Primate T-lymphotropic virus 1, MT2, 504 h, 3 wks post infection, human PBMCs co-cultured with mitomycin C treated MT-2 cells.
Where [4] appears, read: Primate T-lymphotropic virus 1, MT2, 672 h, 4 wks post infection, human PBMCs co-cultured with mitomycin C treated MT-2 cells.
Setting [5] is: concentrations up to 25 μM at 2, 3, or 4 weeks post infection.

In general, EC50 refers to the concentration needed to bring the measured effect to its halfway point. In the case of `CCCCCCCCCCCCCCCCOCCCOP(=O)(O)CO[C@H](C)Cn1cnc2c(N)ncnc21` [HDP-TFV, 3-(hexadecyloxy)propyl hydrogen ((R)-1-(6-amino-9H-purin 9-yl)propan-2-yloxy)methylphosphonate], the “concentration inhibiting HTLV-I replication as measured by p19 ELISA” value with HTLV-I is on record as “above 7 μM”. In addition, the EC50 in the series on HTLV-I (Primate T-lymphotropic virus 1, MT2, 336 h) amounted to 6.8 µM. Also, in the series with HTLV-I (Primate T-lymphotropic virus 1, MT2, 504 h), the EC50 was found to be 0.9 µM. Moreover, in the series with HTLV-I (Primate T-lymphotropic virus 1, MT2, 672 h), the EC50 amounted to 0.2 µM. In addition, in series [1], the CC50 at 2 weeks was more than 10 µM, the CC50 at 3 weeks stood at 6.3 µM and the CC50 at 4 weeks was determined as 1000 nM. Also, the “toxicity as fresh compound was added to the cultures up to day 10” value with infected PBMCs is “increasingly toxic”.
In the case of `Nc1ccn(C[C@@H](CO)OCP(=O)(O)O)c(=O)n1` [Cidofovir, (S)-9-(3-hydroxy-2-phosphonylmethoxypropyl)cytosine], the figures for the “suppression of virus replication greater than 50% (p19 ELISA)” value with HTLV-I and with HTLV-I (listed as cidofovir) were “did not suppress” and “not reached”, respectively. In addition, the “concentration inhibiting HTLV-I virus replication from infected PBMCs” value in the series with HTLV-I was 100 µM. The EC50 in the series on HTLV-I (setting [2]) is more than 100 µM; in the series on HTLV-I (setting [3]) it was 87.8 µM; in the series with HTLV-I (setting [4]), more than 100 µM. Moreover, the CC50 at 2 weeks in series [1] was more than 100 µM. Moreover, the CC50 at 3 weeks in series [1] was more than 100 µM. Also, the CC50 at 4 weeks in series [1] worked out at 80000 nM. For the same compound, the “toxicity to the infected PBMCs” value in the series on infected PBMCs (100 μM, following 4 weeks in culture) was “slightly toxic”.
For the compound `CCCCCCCCCCCCCCCCOCCCOP(=O)(O)CO[C@H](CO)Cn1ccc(N)nc1=O` [HDP-CDV, hexadecyloxypropyl cidofovir], in the series on HTLV-I, the “suppression of virus replication greater than 50% (p19 ELISA)” value is listed as “did not suppress; also recorded: not reached” and the “concentration inhibiting HTLV-I virus replication from infected PBMCs” value was “above 3 μM”. Also, the EC50 in the series with HTLV-I (setting [2]) is more than 10 µM. Further, in the series with HTLV-I (setting [3]), the EC50 is 0.4 µM. Also, the half-maximal effective concentration (EC50) in the series with HTLV-I (setting [4]) was more than 10 µM. Further, the “concentration showing moderate antiviral activity” value in the series on HTLV-I (four weeks of infected PBMC culture, inhibition may be attributed to observed toxicity) was not below 0.2 µM. Moreover, in series [1], the CC50 at 2 weeks was found to be 7.5 µM, the CC50 at 3 weeks came out at 3.2 µM and the CC50 at 4 weeks amounted to 1400 nM. Besides, the “toxicity as fresh compound was added to the cultures up to day 10” value in the series on infected PBMCs was “increasingly toxic”.
Take `C[C@H](Cn1cnc2c(N)ncnc21)OCP(=O)(O)O` [Tenofovir, (R)-9-(2-phosphonylmethoxypropyl)adenine]: the antiviral activity result with HTLV-I was “no antiviral activity”. Further, the EC50 is more than 25 µM in the series with HTLV-I (2 wks post infection, human PBMCs co-cultured with mitomycin C treated MT-2 cells); 10.3 µM in the series on HTLV-I (3 wks post infection, human PBMCs co-cultured with mitomycin C treated MT-2 cells); 4.5 µM with HTLV-I (4 wks post infection, human PBMCs co-cultured with mitomycin C treated MT-2 cells). Moreover, the CC50 with infected PBMCs (2 wks post infection), in the series with infected PBMCs (3 wks post infection) and in the series on infected PBMCs (4 wks post infection) was more than 25 µM throughout. For the same compound, the “toxicity to the infected PBMCs” value with infected PBMCs (setting [5]) was “not toxic”.
For the compound `Cc1cn([C@H]2C[C@H](N=[N+]=[N-])[C@@H](CO)O2)c(=O)[nH]c1=O` [AZT, 3′-azido-2′,3′-dideoxythymidine], in the series on HTLV-I, the “concentration inhibiting HTLV-I replication as measured by p19 ELISA” value is on record as “above 3 μM” and the antiviral activity entry is “no antiviral activity”. Also, the EC50 in the series with HTLV-I (setting [2]) was more than 25 µM. Also, in the series on HTLV-I (setting [3]), the EC50 was 3.2 µM. The EC50 in the series with HTLV-I (setting [4]) turned out to be 2.6 µM. Moreover, in series [1], the CC50 at 2 weeks was more than 25 µM, the CC50 at 3 weeks was more than 25 µM and the CC50 at 4 weeks was more than 25000 nM. For the same compound, the “toxicity to the infected PBMCs” value in the series with infected PBMCs (setting [5]) is “not toxic”.
